The values that follow come from paper PMC4725968 (Scientific Reports, 2016).

The target in one data set is T1, DERACP (Colwellia psychrerythraea, UniProt Q483R4).
T1 construct: gene deoC; synthetic deoC gene in pET21a, C-terminal 6xHis tag; E. coli BL21(DE3); NiNTA; dimer
T1 sequence (Q483R4 1-257): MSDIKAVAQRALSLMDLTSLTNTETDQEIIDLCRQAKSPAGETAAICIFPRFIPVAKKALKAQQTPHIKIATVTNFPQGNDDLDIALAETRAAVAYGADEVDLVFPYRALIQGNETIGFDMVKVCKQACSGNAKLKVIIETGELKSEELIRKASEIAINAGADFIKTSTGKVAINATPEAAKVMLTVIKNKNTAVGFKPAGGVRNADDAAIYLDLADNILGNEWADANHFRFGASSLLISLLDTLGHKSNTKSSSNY
The data set is described as follows: steady-state kinetics, coupled GDH/TPI assay, NADH at […] nm. It counts as biochemical. The note with it: retro-aldol cleavage; 25 °C.

The target in a further data set is T2, DERATM (Thermotoga maritima, UniProt Q9X1P5).
T2 construct: gene deoC; synthetic deoC gene in pET21a, C-terminal 6xHis tag; E. coli BL21(DE3); NiNTA; dimer
T2 sequence (Q9X1P5 1-248): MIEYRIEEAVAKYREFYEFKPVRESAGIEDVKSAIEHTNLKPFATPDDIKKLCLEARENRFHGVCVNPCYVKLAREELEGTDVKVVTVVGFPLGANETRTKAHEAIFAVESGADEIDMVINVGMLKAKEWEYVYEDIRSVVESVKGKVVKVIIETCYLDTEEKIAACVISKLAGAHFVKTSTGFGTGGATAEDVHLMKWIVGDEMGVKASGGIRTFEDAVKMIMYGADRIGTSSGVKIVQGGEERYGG
Described as above. It counts as biochemical. The note with it: retro-aldol cleavage; 25 °C.

The target of another data set is T3, DERAPA (Pyrobaculum aerophilum, UniProt Q8ZXK7).
T3 construct: gene deoC; synthetic deoC gene in pET21a, C-terminal 6xHis tag; E. coli BL21(DE3); NiNTA; dimer
T3 sequence (Q8ZXK7 1-226): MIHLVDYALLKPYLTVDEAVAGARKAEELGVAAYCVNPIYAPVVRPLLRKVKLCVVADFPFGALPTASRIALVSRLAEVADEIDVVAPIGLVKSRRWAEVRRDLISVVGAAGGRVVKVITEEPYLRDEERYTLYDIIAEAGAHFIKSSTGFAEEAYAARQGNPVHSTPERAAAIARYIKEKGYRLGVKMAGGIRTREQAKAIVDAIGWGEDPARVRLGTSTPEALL
Described as above. Particulars: retro-aldol cleavage; 25 °C. It counts as biochemical.

The target of the next data set is T4, DERASH (Shewanella halifaxensis, UniProt B0TQ91).
T4 construct: gene deoC; deoC isolated from genomic DNA; E. coli BL21(DE3); NiNTA purification; dimer
Described as above. It counts as biochemical. The note with it: retro-aldol cleavage; 25 °C.

Another data set has as its target T5, DERAEC (Escherichia coli, UniProt P0A6L0).
T5 construct: gene deoC; deoC isolated previously; E. coli BL21(DE3); NiNTA purification; dimer
T5 sequence (P0A6L0 1-259): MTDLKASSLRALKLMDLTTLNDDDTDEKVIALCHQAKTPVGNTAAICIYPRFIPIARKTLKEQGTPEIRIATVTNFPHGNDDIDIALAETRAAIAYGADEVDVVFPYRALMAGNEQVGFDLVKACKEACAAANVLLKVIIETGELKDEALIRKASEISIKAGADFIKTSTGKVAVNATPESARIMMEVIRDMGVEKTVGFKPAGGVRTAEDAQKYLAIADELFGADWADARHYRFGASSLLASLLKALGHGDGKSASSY
The description is as above. It counts as biochemical. The note with it: retro-aldol cleavage; 25 °C.

Data set [1] deals with the molecule itself. Briefly: SEC; Superdex 200 10/300 GL, 100 mM KPi, 150 mM NaCl (pH 7); 1-5 mg protein loaded; calibrated with five protein standards between 12.5 and 200 kDa; hydrodynamic size.
Data set [2] concerns the molecule itself. The data set is described as follows: crystal structure; sitting-drop vapour diffusion at 20 °C; data at 100 K; DERACP tetragonal (P4(1)2(1)2, two chains per asymmetric unit) and hexagonal (P6(1)22, four chains) forms, DERASH (C2, four chains).
Data set [3] deals with the molecule itself. Briefly: cross-linking; engineered intermolecular disulfide (A95C) across the dimer interface; oxidised against reduced mutant on SDS-PAGE under non-reducing conditions.

Changes are numbered by the printed parent chain. Numbers in names are those of the source.

T4 sequence (B0TQ91 whole entry): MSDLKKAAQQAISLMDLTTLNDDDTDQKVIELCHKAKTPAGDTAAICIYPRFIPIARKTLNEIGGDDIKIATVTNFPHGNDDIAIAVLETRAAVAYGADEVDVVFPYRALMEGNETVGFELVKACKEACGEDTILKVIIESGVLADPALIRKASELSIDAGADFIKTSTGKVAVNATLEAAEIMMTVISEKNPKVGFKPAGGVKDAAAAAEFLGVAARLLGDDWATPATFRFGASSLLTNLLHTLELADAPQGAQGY

Consider `O=P(O)(O)OC[C@H]1OC(O)C[C@@H]1O` (stereo partly drawn) [2-deoxy-D-ribose-5-phosphate], for which the KM result on DERACP is “Both KM and kcat values decrease with increasing optimal growth temperature of the organism”; on DERATM, “Both KM and kcat values decrease with increasing optimal growth temperature of the organism”; at DERAPA, “Both KM and kcat values decrease with increasing optimal growth temperature of the organism”; at DERASH it was “Both KM and kcat values decrease with increasing optimal growth temperature of the organism”; at DERAEC it was “Both KM and kcat values decrease with increasing optimal growth temperature of the organism”.

B1: 2-deoxy-D-ribose-5-phosphate aldolase (DERA) from Pyrobaculum aerophilum, wild type (enzyme)
chain: T3 sequence (Q8ZXK7 1-226)
notes: 2-deoxy-D-ribose-5-phosphate aldolase (DERA, deoC gene) of Pyrobaculum aerophilum; gene synthesised by GenScript, in pET21a; also called DERAPA; hyperthermophilic DERA; source: E. coli BL21(DE3), purified (Ni-NTA)
With B1, in data set [1], the stoichiometry N (commonly the number of molecules, sites or subunits per partner or assembly) turned out to be 2.

B2: 2-deoxy-D-ribose-5-phosphate aldolase (DERA) from Colwellia psychrerythraea, wild type (enzyme, UniProt Q483R4 1-257, looked up)
chain: T1 sequence (Q483R4 1-257)
notes: 2-deoxy-D-ribose-5-phosphate aldolase (DERA, deoC gene) of Colwellia psychrerythraea; gene synthesised by GenScript, in pET21a; also called DERACP; psychrophilic DERA; source: E. coli BL21(DE3), purified (Ni-NTA, SEC)
Take B2: in data set [2], the “stoichiometry N” value is 2.

B3: A95C mutant of DERA from Escherichia coli (enzyme)
chain: T5 sequence (P0A6L0 1-259) with A95C
modifications: intermolecular disulfide bridge C95-C95 in the oxidised form
notes: DERA (deoC gene) of Escherichia coli with the mutation A95C; also called DERAEC A95C; source: E. coli BL21(DE3), purified (Ni-NTA)
With B3, the binding result in data set [3] is recorded as “binds”.

B4: 2-deoxy-D-ribose-5-phosphate aldolase (DERA) from Thermotoga maritima, wild type (enzyme)
chain: T2 sequence (Q9X1P5 1-248)
notes: 2-deoxy-D-ribose-5-phosphate aldolase (DERA, deoC gene) of Thermotoga maritima; gene synthesised by GenScript, in pET21a; also called DERATM; hyperthermophilic DERA; source: E. coli BL21(DE3), purified (Ni-NTA)
With B4, the “stoichiometry N” value in data set [1] is 2.
